Like-named read-outs stand apart in the source and are kept apart here.
Key:
[1] = tested on: RFL-6 cells; experiment: IC50 experiment, cytotoxicity / growth inhibition of RFL-6 rat fibroblast cells; assay type: cell-based; settings: for factor by which cytotoxicity as PEG construct is reduced compared to the free amino acid: RFL-6 cells; for IC50: mean ± SD (n)
Description: In this test two different synthesis batches of cis-hydroxyproline (CHOP) linked to PEG were tested, along with free CHOP. […] The differences between the two batches of CHOP-PEG are not significant.

[2] = Serum release study in fetal calf serum; assay type: in vitro ADME, bovine; settings: six day incubation in FCS at 37° C.
Description: (§1) Buffers at various pH levels were prepared according to the method described in Davies, The Analyst, 1959, 4:248-251, with final ionic strengths of approximately 0.15 mol./L. Incubation samples were prepared by dissolving the dual-labeled conjugate in the appropriate medium to obtain a 50 mg/mL concentration and immediately syringe filtering through 0.45 μm nylon filters. Aliquots (25-30 μL) at specified time points were removed for GPC analysis-fractionation. Release rates were determined by monitoring cleavage of the radiolabeled [^3H]-cHyp from the radiolabeled [^14C] polymeric backbone. Separation of the relatively high molecular weight backbone from the low molecular weight drug was readily achieved via gel permeation chromatography, which is a size separation technique, followed by scintillation counting of the collected fractions. This necessitated using radiolabeled-conjugate concentrations of 50 mg/mL, i.e., 1 mg of conjugate injected per run, resulting in appropriate molecular weight analysis and specific activity determinations for the collected fractions. The serum release studies were conducted in 100% heat inactivated fetal calf serum (ΔFCS) at 37° C. at a concentration of 50 mg/mL of conjugate to ΔFCS, over a six day period.

[3] = Hydrolytic stability of dual-labeled conjugate in pH buffers (GPC, scintillation counting); assay type: physicochemical; settings: six day period
Description: as §1, with “The serum release studies were conducted in 100% heat inactivated fetal calf serum (ΔFCS) at 37° C. at a concentration of 50 mg/mL of conjugate to ΔFCS, over a six day period.” left out
The polymeric conjugate consists of two distinctly different parts: (a) the polymeric backbone [poly(PEG-Lys)]; and (b) the pendent chain which consists of the drug molecule and its linking bond (cHyp). […] The hydrolytic stability of the polymeric conjugate was monitored over a six day period. The stability of the bonds present in the polymeric conjugate (ether, amide and urethane) was evaluated by incubation of the dual-labeled polymeric conjugate at the specified pH. Aliquot removal at specified time intervals, followed by GPC analysis with fractionation, permitted the quantitative monitoring of both carrier stability (molecular weight profile) and drug release (determination of [^3H]/[^14C] ratio by scintillation counting), as is shown in FIG. 12. In the pH range from 0 to 12, no change in either molecular weight, polydispersity or the [^3H] to [^14C] ratio could be detected throughout the test period.

[4] = tested on: rats exposed to hypoxia (10% O2); experiment: cHyp (free or in liposomes) in rats developing hypoxic pulmonary hypertension; assay type: in vivo, rat; settings: for Hct / RVP / RV/(LV + S) / Protein: Hypoxia, day 3; for Protein: pulmonary artery
From the text: Six week old male Sprague Dawley rats (Crl:CD[SD]BR) weighing 185-205 g and 8 week old female Swiss mice (Crl:CP-1[ICR]BR) weighing 30-32 g (Charles River Breading Laboratories, Wilmington, Mass.) were maintained in a holding area one week prior to study and were fed food and water ad libitum. Rats were randomly allocated to hypoxia or air groups; mice breathed air. Animals were kept in a 12-hour light-dark cycle.
Four rats were placed in a polycarbonate chamber measuring 51×41×22 cm, and humidified gas (10% O2, 90% N2 flowed into the chamber at a rate of 400 ml/min. Gas samples were analyzed electrometrically (model MB53-MK2, Radiometer, Copenhagen, Denmark); PO2 ranged from 74-80 mmHg and PCO2 from 3-5 mmHg. Air-breathing rats were kept in cages in the same room and were pair-fed to hypoxic animals by weighing the food consumed by hypoxic animals and feeding the same amount of food to air-breathing animals to ensure similar final body weights. The chambers were opened once daily for 10 min. to clean, weigh and feed the animals.
A catheter was placed in the right ventricle of anesthetized rats (50 mg/kg pentobarbital intraperitoneally), and mean right ventricular pressure was measured using a pressure transducer (model P23Db, Statham, Instruments, Oxnard, Calif.) and recorded (model SP-2006, Statham Instruments). Pressure was measured after the animal had breathed air for 20 min. to eliminate the tonic response to hypoxia. After sacrifice by abdominal aorta transection, hematocrit and ratio of ventricular weights were measured, and the position of the catheter was confirmed at autopsy.
Main pulmonary artery (9 mm in length) was excised and analyzed for total protein and hydroxyproline contents as previously described. Tissue was hydrolyzed in 6N HCl at 118° C. for 48 hrs., diluted 1:10 in water, and a 0.1 ml aliquot was assayed for total protein by the ninhydrin method using leucine as standard and for hydroxyproline by a calorimetric method. Results of triplicate measurements were expressed as content per vessel.
Cis-4-hydroxy-L-proline dissolved in saline (free cHyp) or saline alone were injected subcutaneously (0.5 ml) or intravenously. Intravenous injections were performed in anesthetized animals (25 mg/kg thiopental, intraperitoneally). In rats, liposomes containing cHyp or empty liposomes were injected intravenously (18 μmol phospholipid in […]) via the dorsal vein of the penis over 5 sec using a 30 gauge needle. In mice, liposomes (18 μmol phospholipid in 0.5 ml) were injected into the tail vein.
Four modes of delivery of cHyp were used in rats. Free cHyp (200 or 100 mg/kg) was injected subcutaneously twice daily during exposure to hypoxia. A single dose of free cHyp (200 mg/kg) was given intravenously prior to exposure to hypoxia. Single doses of cHyp entrapped in liposomes (200 or 100 mg/kg) were injected intravenously prior to exposure to hypoxia. Multiple doses of cHyp in liposomes (200 mg/kg) were injected intravenously prior to hypoxia and every 5 days during exposure to hypoxia. Single doses of cHyp entrapped in liposomes after reticuloendothelial blockage were produced by intravenous injection of a single dose of empty liposomes followed 30 minutes later by a single intravenous dose of cHyp entrapped in liposomes (100 or 50 mg/kg) prior to exposure to hypoxia. The purpose was to enhance the localization of liposomes containing cHyp to the lungs by prior treatment with empty liposomes as temporary reticuloendothelial blocking agents.
In each animal, we assessed the effect of injection of cHyp on five parameters of exposure to hypoxia: mean right ventricular pressure (RVP) measured after the animal had been removed from the hypoxic environment, ratio of ventricular weights (RV/[LV+S]), hematocrit, and the contents of hydroxyproline and protein in the pulmonary artery. For each experimental group, comparisons were made to a group exposed to hypoxia and injected with a control substance and to a group exposed to air. […]

[5] = tested on: air-breathing rats; experiment: cHyp in air-breathing rats, parameters of exposure to hypoxia; assay type: in vivo, rat; settings: for Hct / RV/(LV + S) / RVP / Protein: Air, day 3; for Protein: pulmonary artery
From the text: In each animal, we assessed the effect of injection of cHyp on five parameters of exposure to hypoxia: mean right ventricular pressure (RVP) measured after the animal had been removed from the hypoxic environment, ratio of ventricular weights (RV/[LV+S]), hematocrit, and the contents of hydroxyproline and protein in the pulmonary artery. For each experimental group, comparisons were made to a group exposed to hypoxia and injected with a control substance and to a group exposed to air. For free cHyp, the control substance was saline; for cHyp entrapped in liposomes, the control substance was empty liposomes. Groups were age-matched; the air group was weight-matched to the hypoxic group injected with the control substance. Average results of each parameter were compared.
The sixth protocol studied whether cHyp injected in air breathing rats affected any of the parameters of exposure to hypoxia. Air groups were given free cHyp 200 or 100 mg/kg subcutaneously twice daily for 3 days (Groups 13 and 14) and were compared to saline injected animals. A group was injected with 200 mg/kg of cHyp in liposomes every 5 days during a 21-day exposure to air (Group 15), and results were compared to a group injected with empty liposomes every 5 days during a 21-day exposure to air.

[6] = tested on: Smooth muscle cells; experiment: Smooth muscle cell proliferation, cells counted daily; assay type: cell-based; settings: six day period, compared to free cHyp and tHyp
From the text: As can be noted with respect to FIGS. 6-9, the antifibrotic agents can be conjugated with PEG or another polymer and used to reduce cellular proliferation in the presence of collagen metabolism. In FIG. 6, the effect of free cHyp, polymeric cHyp and free trans-hydroxyproline were compared over a six day period. Smooth muscle cells were allowed to proliferate in the presence of free cHyp, polymeric cHyp and trans-hydroxyproline. The polymeric cHyp was produced as described above and contained ester linkages. On each day, the cells were trypsinized and counted with a hemocytometer. […] This is further supported by the data illustrated in FIG. 9, generated with fibroblast cells. […] See, e.g., FIG. 7, which presents a comparison of activity between the ester linked polymer and the amide linked polymer in FIG. 8.

[7] = Rattus norvegicus, RFL-6, free amino acid, read-out: IC50, Free AA
[8] = 100 mg/kg subcutaneously for 3 days

## O=C(O)[C@@H]1CCN1 [ACA, (S)-(−)-2-azetidinecarboxylic acid]
[1]
  factor by which cytotoxicity as PEG construct is reduced compared to the free amino acid: 4 ×
[1]; [7]
  IC50: 1700 ± 1800 µM

## poly(PEG-[^14C]Lys-[^3H]cHyp) [dual-labeled polymeric conjugate]
[2]
  cleavage of [3H]cHyp from the carrier: did not occur to any appreciable extent
  polymer backbone stability: completely maintained
[3]; pH 14, 25° C.
  change in [3H]/[14C] ratios (amide stability): relatively no change
  polymer backbone stability: Massive backbone degradation
[3]; pH range from 0 to 12, 25° C.
  change in molecular weight, polydispersity or [3H] to [14C] ratio: no change

## O=C(O)[C@@H]1C[C@H](O)CN1 (stereo in doubt) [cHyp, cis-4-hydroxy-L-proline]
[1]; [7]
  IC50: 8800 ± 5100 µM
[4]; [8]
  hematocrit: partial decrease
  increased RVP, RV/(LV+S) or hydroxyproline or protein contents: did not prevent
[4]; 200 mg/kg subcutaneously twice daily for 3 days
  pulmonary hypertension: partially prevented
[4]; 100 mg/kg sq bid × 3 days
  Hct: 51 ± 1 %
  RVP: 14 ± 1 mmHg
  Protein: 2.3 ± 0.3 mg/vessel
[4]; 200 mg/kg iv × 1 injection
  Hct: 55 ± 1 %
  RV/(LV + S): 0.32 ± 0.01 %
  RVP: 14 ± 1 mmHg
  Protein: 2.3 ± 0.3 mg/vessel
[4]; 200 mg/kg sq bid × 3 days
  Hct: 51 ± 1 %
  RV/(LV + S): 0.25 ± 0.01 %
  RVP: 10 ± 1 mmHg
  Protein: 1.4 ± 0.1 mg/vessel
[4]; at 5 days, subcutaneous (200 mg/kg twice daily)
  minimal total dose required to prevent hypoxic pulmonary hypertension: 2000 mg/kg
[4]; injected intravenously prior to hypoxic exposure
  effect on any parameter: no effect
[5]; 100 mg/kg sq bid × 3 days
  Hct: 47 ± 1%
  RV/(LV + S): 0.25 ± 0.01%
  RVP: 9 ± 1 mmHg
  Protein: 1.2 ± 0.1 mg/vessel
[5]; 200 mg/kg sq bid × 3 days
  Hct: 46 ± 1%
  RV/(LV + S): 0.24 ± 0.01%
  RVP: 9 ± 1 mmHg
  Protein: 1.2 ± 0.1 mg/vessel
[5]; air, 200 mg/kg or 100 mg/kg twice daily subcutaneously for 3 days
  effect on any of the measured parameters: no effect

## O=C(O)C1C=CCN1 (racemic) [DHP, 3,4-dehydro-DL-proline]
[1]
  factor by which cytotoxicity as PEG construct is reduced compared to the free amino acid: 8 ×
[1]; [7]
  IC50: 700 ± 300 µM

## Poly(PEG-Lys-cis-Hyp) Copolymer [amide linked polymer]
[6]
  Cellular proliferation: further reduced

## Poly(PEG-Lys-cis-Hyp) Copolymer [polymeric cHyp]
[6]
  Cellular proliferation: significantly reduced

## NCCCC[C@H](N)C(=O)N1C[C@@H](O)C[C@H]1C(=O)O (relative stereo) [CHOP-Lys, L-lysine-cis-4-hydroxy-L-proline dipeptide]
[1]; lysyl dipeptide, read-out: IC50, AA-Lys
  IC50: 7000 µM

## O=C(O)[C@@H]1CSCN1 [THP, (R)-(−)-2-thiazolidine-4-carboxylic acid]
[1]
  factor by which cytotoxicity as PEG construct is reduced compared to the free amino acid: 12 ×
[1]; [7]
  IC50: 700 ± 100 µM

From US20030186869A1, “Polymer compositions comprising antifibrotic agents, and methods of treatment, pharmaceutical compositions, and methods of preparation therefor” (priority 1990, published 2003)
